From patent US10508085B2, “Compounds and methods for IDO and TDO modulation, and indications therefor” (Plexxikon Inc., priority 2016, dated 2019) come the findings set out here.

Molecules are shown by their SMILES.

In experiment [1] the target is T1, Human Indoleamine 2,3-dioxygenase (IDO) (Homo sapiens, UniProt P14902).
T1 construct: His tag (N); made in house; host or cells: E. coli
The experiment is described as follows: Human IDO enzymatic assay (kynurenine level). Format: biochemical. The conditions noted are these: 6 nM IDO, 10 μM L-Trp; geometric mean; read-out: IDO1 GMean: IC50 (μM) (Biochemical Assay). Summed up:
(§1)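 N-His human IDO (6 nM, 10 μM L-Trp, 5 μM methylene blue, 20 min) or TDO (1 nM, 350 μM L-Trp, 0.4 μM methylene blue, 70 min) run at room temp in pH 6.5 phosphate with ascorbate, catalase, Tween 20. TCA stop, 30 min 50 °C converts N-formylkynurenine to kynurenine; IC50 by nonlinear regression.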

Experiment [2] concerns the target T2, Human Tryptophan 2,3-dioxygenase (TDO) (Homo sapiens, UniProt P48775).
T2 construct: His tag (N); made in house; host or cells: E. coli
Description: Human TDO enzymatic assay (kynurenine level). Conditions: 1 nM TDO, 350 μM L-Trp; geometric mean; read-out: TDO GMean: IC50 (μM) (Biochemical Assay). Format: biochemical. The gist of the method: as §1

Experiment [3] has as its target T3, human IDO (IDO1-expressing HEK293 cells) (Homo sapiens, UniProt P14902).
T3 construct: expressed in transfected cells
Description: Cell based kynurenine assay, IDO1-expressing HEK293 cell clones. The conditions noted are these: IDO1-expressing HEK293 cells, 24 hours, geometric mean; read-out: HEK293 IDO1 Kynurenine GMean IC50 (μM) (Cellular Assay). The gist of the method:
(§2)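 Cellular IDO1 and TDO activity is followed as kynurenine released by stably transfected HEK293 clones over 24 h with test compound. Controls are DMSO-treated cells and media alone.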

The target of experiment [4] is T4, human TDO (TDO-expressing HEK293 cells) (Homo sapiens, UniProt P48775).
T4 construct: expressed in transfected cells
T4 sequence (P48775 whole entry): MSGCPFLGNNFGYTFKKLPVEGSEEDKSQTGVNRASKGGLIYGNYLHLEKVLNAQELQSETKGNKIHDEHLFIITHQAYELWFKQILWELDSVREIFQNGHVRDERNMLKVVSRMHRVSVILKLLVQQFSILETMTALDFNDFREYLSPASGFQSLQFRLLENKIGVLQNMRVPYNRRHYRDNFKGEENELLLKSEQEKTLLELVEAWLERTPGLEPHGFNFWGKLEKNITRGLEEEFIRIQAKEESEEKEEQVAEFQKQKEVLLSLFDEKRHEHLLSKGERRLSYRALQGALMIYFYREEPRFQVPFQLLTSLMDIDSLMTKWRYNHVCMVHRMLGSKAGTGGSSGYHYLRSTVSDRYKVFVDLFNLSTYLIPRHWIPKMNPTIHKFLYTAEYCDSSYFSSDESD
The experiment is described as follows: Cell based kynurenine assay, TDO-expressing HEK293 cell clones. Conditions: TDO-expressing HEK293 cells, 24 hours, geometric mean; read-out: HEK293 TDO Kynurenine GMean IC50 (μM) (Cellular Assay). Summed up:
as §2

T1 sequence (P14902 whole entry): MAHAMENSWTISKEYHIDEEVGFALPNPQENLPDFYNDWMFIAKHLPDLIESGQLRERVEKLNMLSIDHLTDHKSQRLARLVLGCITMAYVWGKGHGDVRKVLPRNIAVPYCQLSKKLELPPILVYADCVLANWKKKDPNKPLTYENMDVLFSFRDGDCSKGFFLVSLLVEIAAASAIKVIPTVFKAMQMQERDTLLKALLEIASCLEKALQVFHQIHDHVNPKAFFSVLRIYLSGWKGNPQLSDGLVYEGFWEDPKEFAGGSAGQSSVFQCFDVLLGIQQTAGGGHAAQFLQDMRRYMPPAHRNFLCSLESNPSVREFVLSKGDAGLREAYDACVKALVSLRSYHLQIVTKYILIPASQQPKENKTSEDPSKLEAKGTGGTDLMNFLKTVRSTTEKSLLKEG
T3 sequence (P14902 whole entry): as above
T2 sequence (P48775 whole entry): as the sequence (P48775 whole entry) above

As a reminder, the IC50 is the concentration needed to halve the response being measured. Consider `COc1cc(CC(=O)N2CCC(C(F)(F)C(O)c3cc(Cl)cc4cn[nH]c34)CC2)ccn1` (stereo not drawn) [Compound P-0526, 1-(4-(2-(5-chloro-1H-indazol-7-yl)-1,1-difluoro-2-hydroxyethyl)piperidin-1-yl)-2-(2-methoxypyridin-4-yl)ethan-1-one], for which the IC50 in experiment [1], in experiment [2], in experiment [3] and in experiment [4] was 0.0001 to 10 µM in each case.

With `CC(C)(C)OC(=O)N1CCC(C(F)(F)[C@H](O)c2c3c(cc4cn[nH]c24)CC3)CC1` [Compound P-0527, tert-butyl (R)-4-(2-(5,6-dihydro-1H-cyclobuta[f]indazol-7-yl)-1,1-difluoro-2-hydroxyethyl) piperidine-1-carboxylate], the IC50 in experiment [1] fell in the range of 0.0001 to 10 µM; in experiment [2], 10 to 100 µM; in experiment [3] it was 0.0001 to 10 µM; in experiment [4] it was 0.0001 to 10 µM.

With `CC(C)(C)OC(=O)N1CCC(C(F)(F)[C@@H](O)c2c3c(cc4cn[nH]c24)CC3)CC1` [Compound P-0528, tert-butyl (S)-4-(2-(5,6-dihydro-1H-cyclobuta[f]indazol-7-yl)-1,1-difluoro-2-hydroxyethyl) piperidine-1-carboxylate], the IC50 in experiment [1] is 0.0001 to 10 µM; in experiment [2], over 200 µM; in experiment [3] it was 0.0001 to 10 µM; in experiment [4], 0.0001 to 10 µM.

Turning to `CC(C)(C1CCN(C(=O)C2CC2)CC1)[C@H](O)c1cc(Cl)cc2cn[nH]c12` [Compound P-0529, (S)-(4-(1-(5-chloro-1H-indazol-7-yl)-1-hydroxy-2-methylpropan-2-yl)piperidin-1-yl)(cyclopropyl) methanone], the IC50 in experiment [1], in experiment [2], in experiment [3] and in experiment [4] was 0.0001 to 10 µM each time.

With `CC(C)(C1CCN(C(=O)CC2CC2)CC1)[C@H](O)c1cc(Cl)cc2cn[nH]c12` [Compound P-0530, (S)-1-(4-(1-(5-chloro-1H-indazol-7-yl)-1-hydroxy-2-methylpropan-2-yl)piperidin-1-yl)-2-cyclopropylethan-1-one], the IC50 in experiment [1], in experiment [2], in experiment [3] and in experiment [4] was 0.0001 to 10 µM in each case.

On to `CC(C)(C1CCN(C(=O)CC(F)(F)F)CC1)[C@H](O)c1cc(Cl)cc2cn[nH]c12` [Compound P-0531, (S)-1-(4-(1-(5-chloro-1H-indazol-7-yl)-1-hydroxy-2-methylpropan-2-yl)piperidin-1-yl)-3,3,3-trifluoropropan-1-one], for which the IC50 in experiment [1], in experiment [2], in experiment [3] and in experiment [4] was 0.0001 to 10 µM each time.

Consider `CC(C)(C1CCN(C(=O)CC2CCOCC2)CC1)[C@H](O)c1cc(Cl)cc2cn[nH]c12` [Compound P-0532, (S)-1-(4-(1-(5-chloro-1H-indazol-7-yl)-1-hydroxy-2-methylpropan-2-yl)piperidin-1-yl)-2-(tetrahydro-2H-pyran-4-yl)ethan-1-one], for which the IC50 in experiment [1], in experiment [2], in experiment [3] and in experiment [4] was 0.0001 to 10 µM throughout.

As to `COCC(=O)N1CCC(C(C)(C)[C@H](O)c2cc(Cl)cc3cn[nH]c23)CC1` [Compound P-0533, (S)-1-(4-(1-(5-chloro-1H-indazol-7-yl)-1-hydroxy-2-methylpropan-2-yl)piperidin-1-yl)-2-methoxyethan-1-one], the IC50 in experiment [1], in experiment [2], in experiment [3] and in experiment [4] was 0.0001 to 10 µM in each case.

Consider `CC(C)(C1CCN(C(=O)CC#N)CC1)[C@H](O)c1cc(Cl)cc2cn[nH]c12` [Compound P-0534, (S)-3-(4-(1-(5-chloro-1H-indazol-7-yl)-1-hydroxy-2-methylpropan-2-yl)piperidin-1-yl)-3-oxopropanenitrile], for which the IC50 in experiment [1], in experiment [2], in experiment [3] and in experiment [4] was 0.0001 to 10 µM each time.

`CC(C)(C1CCN(C(=O)CO)CC1)[C@H](O)c1cc(Cl)cc2cn[nH]c12` [Compound P-0535, (S)-1-(4-(1-(5-chloro-1H-indazol-7-yl)-1-hydroxy-2-methylpropan-2-yl)piperidin-1-yl)-2-hydroxyethan-1-one]: the IC50 in experiment [1], in experiment [2], in experiment [3] and in experiment [4] was 0.0001 to 10 µM each time.

As to `CC(C)(C1CCN(C(=O)c2cccnc2)CC1)[C@H](O)c1cc(Cl)cc2cn[nH]c12` [Compound P-0536, (S)-(4-(1-(5-chloro-1H-indazol-7-yl)-1-hydroxy-2-methylpropan-2-yl)piperidin-1-yl)(pyridin-3-yl)methanone], the IC50 in experiment [1], in experiment [2], in experiment [3] and in experiment [4] was 0.0001 to 10 µM throughout.

Regarding `CC(C)(C1CCN(C(=O)c2ccc(C(F)(F)F)nc2)CC1)[C@H](O)c1cc(Cl)cc2cn[nH]c12` [Compound P-0537, (S)-(4-(1-(5-chloro-1H-indazol-7-yl)-1-hydroxy-2-methylpropan-2-yl)piperidin-1-yl)(6-(trifluoromethyl)pyridin-3-yl)methanone], the IC50 in experiment [1], in experiment [2], in experiment [3] and in experiment [4] was 0.0001 to 10 µM in each case.

Turning to `CC(C)(C1CCN(C(=O)c2ccc(N3CCOCC3)nc2)CC1)[C@H](O)c1cc(Cl)cc2cn[nH]c12` [Compound P-0538, (S)-(4-(1-(5-chloro-1H-indazol-7-yl)-1-hydroxy-2-methylpropan-2-yl)piperidin-1-yl)(6-morpholinopyridin-3-yl)methanone], the IC50 in experiment [1], in experiment [2], in experiment [3] and in experiment [4] was 0.0001 to 10 µM throughout.

As for `CC(C)(C1CCN(C(=O)C2C(C)(C)C2(C)C)CC1)[C@H](O)c1cc(Cl)cc2cn[nH]c12` [Compound P-0539, (S)-(4-(1-(5-chloro-1H-indazol-7-yl)-1-hydroxy-2-methylpropan-2-yl)piperidin-1-yl)(2,2,3,3-tetramethylcyclopropyl) methanone], the IC50 in experiment [1], in experiment [2], in experiment [3] and in experiment [4] was 0.0001 to 10 µM each time.

In the case of `COC(=O)N1CCC(C(C)(C)[C@H](O)c2cc(Cl)cc3cn[nH]c23)CC1` [Compound P-0540, methyl (S)-4-(1-(5-chloro-1H-indazol-7-yl)-1-hydroxy-2-methylpropan-2-yl)piperidine-1-carboxylate], the IC50 in experiment [1], in experiment [2], in experiment [3] and in experiment [4] was 0.0001 to 10 µM throughout.

`CCOC(=O)N1CCC(C(C)(C)[C@H](O)c2cc(Cl)cc3cn[nH]c23)CC1` [Compound P-0541, ethyl (S)-4-(1-(5-chloro-1H-indazol-7-yl)-1-hydroxy-2-methylpropan-2-yl)piperidine-1-carboxylate]: the IC50 in experiment [1], in experiment [2], in experiment [3] and in experiment [4] was 0.0001 to 10 µM throughout.

As to `CC(=O)N1CCC(C(C)(C)[C@H](O)c2cc(Cl)cc3cn[nH]c23)CC1` [Compound P-0542, (S)-1-(4-(1-(5-chloro-1H-indazol-7-yl)-1-hydroxy-2-methylpropan-2-yl)piperidin-1-yl)ethan-1-one], the IC50 in experiment [1], in experiment [2], in experiment [3] and in experiment [4] was 0.0001 to 10 µM each time.

Turning to `CCCC(=O)N1CCC(C(C)(C)[C@H](O)c2cc(Cl)cc3cn[nH]c23)CC1` [Compound P-0543, (S)-1-(4-(1-(5-chloro-1H-indazol-7-yl)-1-hydroxy-2-methylpropan-2-yl)piperidin-1-yl)butan-1-one], the IC50 in experiment [1], in experiment [2], in experiment [3] and in experiment [4] was 0.0001 to 10 µM in each case.

Turning to `CC(C)C(=O)N1CCC(C(C)(C)[C@H](O)c2cc(Cl)cc3cn[nH]c23)CC1` [Compound P-0544, (S)-1-(4-(1-(5-chloro-1H-indazol-7-yl)-1-hydroxy-2-methylpropan-2-yl)piperidin-1-yl)-2-methylpropan-1-one], the IC50 in experiment [1], in experiment [2], in experiment [3] and in experiment [4] was 0.0001 to 10 µM throughout.

In the case of `CC(C)CC(=O)N1CCC(C(C)(C)[C@H](O)c2cc(Cl)cc3cn[nH]c23)CC1` [Compound P-0545, (S)-1-(4-(1-(5-chloro-1H-indazol-7-yl)-1-hydroxy-2-methylpropan-2-yl)piperidin-1-y1)-3-methylbutan-1-one], the IC50 in experiment [1], in experiment [2], in experiment [3] and in experiment [4] was 0.0001 to 10 µM in each case.

Take `CC(C)(C1CCN(C(=O)C2CCOCC2)CC1)[C@H](O)c1cc(Cl)cc2cn[nH]c12` [Compound P-0546, (S)-(4-(1-(5-chloro-1H-indazol-7-yl)-1-hydroxy-2-methylpropan-2-yl)piperidin-1-yl)(tetrahydro-2H-pyran-4-yl)methanone]: the half-inhibitory concentration (IC50) in experiment [1], in experiment [2], in experiment [3] and in experiment [4] was 0.0001 to 10 µM each time.
